Columns and labels:
[1] = molecular target: T1, bacterial thymidine phosphorylase (Escherichia coli, UniProt P07650); assay: Phosphorolytic cleavage by dThd phosphorylase; format: biochemical; conditions: for Initial velocity of phosphorolysis: 25°C, 0.1 M sodium phosphate buffer, pH 7.0, N.D. = not detectable with 25 units of enzyme
T1 construct: purchased Sigma Chemical Co., St. Louis, MO
Experimental: Phosphorolytic cleavage of the test compounds was assessed using purified bacterial dThd phosphorylase (Sigma Chemical Co., St. Louis, MO) with the aid of a Beckman spectrophotometer UV/Vis 5200; the absorbance change during the enzyme reaction was continuously monitored at 25°C at the wavelength where the difference of absorption between the nucleoside and its free base was maximal. The reaction mixtures for all the assays consisted of enzyme and non-satura ting concentrations of nucleoside in 0.1 M sodium phosphate buffer, pH 7.0. The initial velocity of phosphorolysis was expressed as nmol/min/enzyme unit.

[2] = system: HIV; conditions: MT4 lymphocytes; cited from earlier work
[3] = system: C3H cells; assay: Cytotoxicity for C3H cells (alteration of normal cell morphology); format: cell-based, mouse; conditions: alteration of normal cell morphology, C3H cells
[4] = system: HIV; conditions: ATH8 T-lymphocyte cell line; cited from earlier work
[5] = system: Moloney murine sarcoma virus (MSV); assay: Inhibition of transformation of C3H cells by MSV; format: cell-based
Experimental: Moloney murine sarcoma virus (MSV) was prepared from tumors induced by in vivo infection of 10 day-old NMRI mice according to the procedure described by De Clercq et al (Proc. Soc. Exp. Biol. Med. 137, 590-594 (1971)).
ddUrd and the substituted pymiridine 2′,3′-dideoxynucleoside analogues were examined for their inhibitory effect on the transformation of mouse embryo C3H fibroblasts by Moloney murine sarcoma virus (MSV).
C3H cells were seeded at 20,000 cells per ml into wells of Costar Tissue Culture Cluster plates (48 wells per plate) and grown to confluency. Cell cultures were then infected by 150 foci-forming units of MSV during 90 min, whereafter the culture medium was replaced by 1 ml fresh medium containing different concentrations of the test compound. After 6 days, the transformation of the cell cultures was examined microscopically.

[6] = molecular target: T2, Molt/4F dCyd kinase (Homo sapiens, UniProt P27707); assay: Inhibition of dCyd kinase (Lineweaver-Burk); format: biochemical
T2 construct: endogenous in cells; host or cells: Molt/4F cells (sonicated extract, 30-70% ammonium sulfate fraction, dialyzed)
Experimental: ddUrd and the 3′-fluoro- and 3′-azido-substituted pyrimidine 2′,3′-dideoxynucleoside analogues were evaluated for their inhibitory effect against dThd and dCyd kinase.
dThd kinase and dCyd kinase were prepared from exponen tially growing Molt/4F cells, which were first washed (2x) with phosphate-buffered saline at 4° and then homogenized by sonication. The suspensions were clarified by centrifugation at 25,000-27,000 x g for 30 min. The 30-70% (NH₄)₂SO₄ precipitate of the supernatant was resuspended in buffer containing 10 uM potassium phosphate, pH 7.5, 10 mM β-mercaptoethanol and 0.1 M KCl, dialyzed against the same buffer, and used for the dThd kinase and the dCyd kinase assays. In these experiments, (2-¹⁴C)dThd and (U-¹⁴C)dCyd served as the radiolabelled substrates. The apparent Km and Ki values were derived from Lineweaver-Burk plots, using a linear regression analysis program. The assay procedures have been described in detail (J. Balzarini et al, (1983) and J. Balzarini et al, Biochem. Pharmacol. 31, 3673-3682 (1982)).

T2 sequence (P27707 whole entry): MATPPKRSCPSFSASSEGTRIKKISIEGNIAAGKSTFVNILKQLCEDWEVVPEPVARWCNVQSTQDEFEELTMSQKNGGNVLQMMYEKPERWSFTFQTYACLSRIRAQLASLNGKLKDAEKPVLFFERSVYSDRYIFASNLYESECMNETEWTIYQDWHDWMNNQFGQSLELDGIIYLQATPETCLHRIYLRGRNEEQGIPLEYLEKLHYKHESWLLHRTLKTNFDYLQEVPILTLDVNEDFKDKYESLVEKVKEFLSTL
T1 sequence (P07650 whole entry): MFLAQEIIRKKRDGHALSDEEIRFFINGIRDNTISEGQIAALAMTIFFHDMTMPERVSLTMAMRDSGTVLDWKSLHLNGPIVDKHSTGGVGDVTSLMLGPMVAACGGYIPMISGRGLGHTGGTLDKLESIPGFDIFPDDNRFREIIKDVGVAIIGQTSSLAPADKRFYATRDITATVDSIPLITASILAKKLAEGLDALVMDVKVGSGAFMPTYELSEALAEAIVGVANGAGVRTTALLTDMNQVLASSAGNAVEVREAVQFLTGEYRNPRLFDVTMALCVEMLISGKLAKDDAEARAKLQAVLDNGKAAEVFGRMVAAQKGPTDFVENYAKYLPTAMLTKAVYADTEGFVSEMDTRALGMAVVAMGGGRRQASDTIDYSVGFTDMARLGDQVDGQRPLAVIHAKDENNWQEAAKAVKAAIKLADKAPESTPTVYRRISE

O=c1ccn([C@H]2C[C@H](O)[C@@H](CO)O2)c(=O)[nH]1 [dUrd]
Initial velocity of phosphorolysis [1]: 361 nmol/min/unit

Cc1cn([C@H]2C[C@H](N=[N+]=[N-])[C@@H](CO)O2)c(=O)[nH]c1=O [AzddThd, 3′-azido-2′,3′-dideoxythymidine]
concentration that protects MT4 cells against HIV [2]: 0.02 µM

Cc1cn([C@H]2CC[C@@H](CO)O2)c(=O)[nH]c1=O [2′,3′-dideoxythymidine]
concentration that protects MT4 cells against HIV [2]: 1 µM

Cc1cn([C@H]2C=C[C@@H](CO)O2)c(=O)[nH]c1=O [2′,3′-didehydro-2′,3′-dideoxythymidine]
concentration that protects MT4 cells against HIV [2]: 0,04 µM

CCc1cn([C@H]2C[C@H](O)[C@@H](CO)O2)c(=O)[nH]c1=O [dEtUrd]
Initial velocity of phosphorolysis [1]: 0.893 nmol/min/unit

[N-]=[N+]=N[C@H]1C[C@H](n2ccc(N)nc2=O)O[C@@H]1CO [AzddCyd, 3′-Azido-2′,3′-dideoxycytidine]
MSV-induced cyto-pathogenicity CD50 [3]: >400 µM
anti-retroviral effect compared with ddCyd [4]: much less effective than ddCyd
susceptibility to phosphorolysis by dThd phosphorylase (in words) ([1]; purified bacterial dThd phosphorylase): totally resistant
EC50 ([5]; Moloney murine sarcoma virus, 144 h, 50% reduction of transformation of C3H cells by MSV, 6 days, read-out: MSV-induced cyto-pathogenicity ED50): 70 µM
MSV-induced cyto-pathogenicity S.I. ([5]; Selectivity index or ratio of CD50 to ED50, C3H cells): > 5.7
Ki/Km ([6]; Km 5.2 to 6.4 µM): 58
Ki ([6]; substrate (U-14C)dCyd): 354 µM
Type of inhibition ([6]; with respect to dCyd): competitive

Source: patent EP0316592A2, “3'-Fluoro-2',3'-dideoxyuridine, and its therapeutic application” (Stichting REGA V.Z.W., priority 1987, dated 1989)
